Source: PMC7000758 (Nature Communications, 2020)
Several values for one entry are separate records, joined by “and”; a condition that tells them apart may be missing. Equal values may be shown once. Entries after “also recorded” stand apart in the source; their conditions may differ. Read-outs that look alike come from different tables or passages of the source.

What was measured:
[1] = set-up: method as in rabbit PK study previously conducted by the authors; conditions: rabbit; ref rabbit PK study previously conducted by the authors; cited from earlier work
[2] = Cataract after intravitreous injection in mice; format: in vivo, C57BL/6 mice; conditions: intravitreous doses of free sunitinib >0.5 µg
Description: The murine model of laser-induced rupture of Bruch’s membrane results in choroidal NV that is similar to type 2 choroidal NV in patients with NVAMD, because the new vessels originate from the choroid and penetrate through Bruch’s membrane and the RPE into the subretinal space. Studies in this model helped to implicate VEGF as a critical stimulus for NVAMD[4] and predicted the clinical benefits seen with aflibercept, a recombinant VEGF-neutralizing protein commonly used to treat patients with NVAMD[6],[35].

[3] = Melanin binding of sunitinib in vitro; format: in vitro ADME, sepia officialis; conditions: for percentage of melanin-bound sunitinib: 10 mg melanin in PBS, 1 h
[4] = test system: choroidal NV at Bruch's membrane rupture sites; assay: Mouse model of laser-induced choroidal NV (type 2); format: in vivo, C57BL/6 mice; conditions: for CNVsize: individual eyes
Description: Mice were treated in accordance with the Association for Research in Vision and Ophthalmology Guidelines on the care and use of animals in research. All protocols were approved by the Animal Care and Use Committee of the Johns Hopkins University School of Medicine. Laser photocoagulation-induced rupture of Bruch’s membrane was used to generate choroidal NV[34]. […] One week after rupture of Bruch’s membrane, mice were euthanized, eyes were removed, anterior segments, retinas, and vitreous was removed, and eye cups were stained with fluorescein isothiocyanate (FITC)-conjugated GSA (Vector Laboratories, Burlingame, CA), and flat mounted. Flat mounts were examined by fluorescence microscopy and the area of each choroidal NV was measured by image analysis with Image-Pro Plus software (Media Cybernetics, Silver Spring, MD) by an observer masked with respect to experimental groups. The three areas obtained in each eye were averaged to give a single experimental value.

[5] = cited from earlier work
[6] = for Average release (%): Fig 1b dissolution of suspension
Description: At selected time points, 3 ml of the release medium was collected and replaced with 3 ml fresh release medium.

[7] = Pharmacokinetic study in mice (drug remaining in eye, LC-MS); format: in vivo, C57BL/6N mice; conditions: for Remaining Drug (Normalized against T0) (%): mouse eye, intravitreous 1 µg sunitinib or equivalent
Description: Twenty male or female 5–7-week-old C57BL/6N mice were anesthetized and the pupils were dilated as previously described. […] […], 5 mice from each condition were euthanized and the whole globes were collected and transferred to a bioanalytical facility for measurement of drug levels by liquid chromatography–mass spectrometry (LC–MS). The amount of drug remaining in the eye at 30 days was compared to and presented as a percentage of the initial dose injected in the eye.

[8] = test system: vascular leakage (vitreous albumin); assay: Measurement of albumin in vitreous samples (ELISA); format: in vivo, rho/VEGF mice
Description: Vitreous samples were obtained by inserting a micropipette into the vitreous cavity and gently aspirating the vitreous. Using the manufacturer’s instructions, a mouse albumin ELISA kit (ab108791; […] The plate wa read at 450 and 570 nm with SpectraMax Plus (Molecular Devices, San Jose, CA).

VEGF-induced leukostasis = assay: Retinal leukostasis (concanavalin A perfusion); format: in vivo, C57BL/6 mice; conditions: 40 µg
Description: Leukostasis was measured by staining leukocytes with rhodamine- or FITC-labeled conA[52]. […] Vector Labs Thermofisher). The vasculature was flushed for 4 min with PBS to remove residual unbound conn A. […] Retinas were examined by fluorescence microscopy and the number of intravascular leukocytes throughout the entire retina were counted by an investigator masked with respect to treatment group. […] After washing, retinas were incubated in Alexa Fluor 594-conjugated goat anti-rat secondary antibody (1:500; A-11007 Invitrogen) for 1 h at room temperature. Retinas were washed, flat mounted and examined by fluorescence microscopy.

rhodopsin kinase (GRK-1) = assay: Photoreceptor survival: rhodopsin kinase (GRK-1)/actin immunoblot of retinal homogenates; format: in vivo, rho/VEGF mice
Description: At P42, some mice were euthanized and eyes were marked at the 12:00 pole and frozen in embedding compound. […] At […] five mice were euthanized and retinas were dissected from each eye and homogenized in 150 μl lysis buffer (Abcam, Cambridge, MA) followed by high speed centrifuge (16,000 × g, 15 min). Supernatants were collected in pre-chilled eppendorf tubes. […] Membranes were probed with anti-GRK1 antibody (1:1000; ThermoFischer Scientific, Catalog no. PA5-13725, Lot no. […] Catalog no. A2066, Lot no. 019M4777V, Sigma Life Science, St. Louis, MO) overnight at 4 °C. […] Louis, MO) was added followed by incubation in SuperSignal West Dura Extended Duration Substrate (Thermofisher), and Western blots were imaged and analyzed with a Bio-mad imaging system.

[9] = test system: photoreceptors (outer nuclear layer); assay: Photoreceptor survival: ONL thickness in mice with type 3 choroidal NV; format: in vivo, rho/VEGF mice; conditions: for ONL thickness: Fig 5b, 40 µg, P42, individual eyes
subretinal NV = assay: Subretinal NV in rho/VEGF transgenic mice (type 3 choroidal NV); format: in vivo; conditions: for Mean area of sunretinal NV per retina: Fig 4b, 40 µg at P14, individual retinas
Description: At P21, P28, P35, or P42, mice were euthanized and retinas were stained with FITC-labeled GSA lectin and flat mounted with photoreceptors facing up. Retinal flat mounts were examined by fluorescence microscopy and the area of subretinal NV was measured by image analysis by a masked observer.

For `CCN(CC)CCNC(=O)c1c(C)[nH]c(/C=C2\C(=O)Nc3ccc(F)cc32)c1C` [sunitinib, reference compound], the vitreous half-life [1] is listed as ~ 2 days, the cataract [2] is listed as “severe cataract” and the “percentage of drug bound to melanin” value ([3]; at a ratio of <10) is listed as 96–99.8%. The “percentage of melanin-bound sunitinib” value ([3]; sunitinib-to-melanin mass ratio 0.001%) was 99.8%, the “percentage of melanin-bound sunitinib” value ([3]; sunitinib-to-melanin mass ratio 20%) was ~ 80% and the CNVsize ([4]; Fig 2c, intravitreous free sunitinib 0.1µg, 1 week) was 0.01929 mm2 and 0.0114 mm2 and 0.03268 mm2 and 0.02288 mm2 and 0.01524 mm2 and 0.02254 mm2 and 0.02987 mm2 and 0.01948 mm2 and 0.01091 mm2. For the same compound, the CNVsize ([4]; Fig 2c, intravitreous free sunitinib 0.5µg, 1 week) was 0.008346 mm2 and 0.0258 mm2 and 0.01396 mm2 and 0.0209 mm2 and 0.02253 mm2 and 0.02124 mm2 and 0.01904 mm2 and 0.01077 mm2 and 0.02107 mm2 and 0.01493 mm2, the “mean area of choroidal NV vs PBS fellow eye” value ([4]; intravitreous 0.5 or 0.1 µg free sunitinib, 1 week) was “no significant difference; also recorded: no significant reduction” and the “solubility in acidic aqueous solutions” value ([5]; pH 1.2–6.8) was “high solubility”. For the same compound, the aqueous solubility ([5]; pH 7.4) was “low aqueous solubility”, the “Average release (%)” value ([6]; 0.125 days) was 34.3% and the “Average release (%)” value ([6]; 1 day) was 51.9%. The “Average release (%)” value ([6]; 3 days) was 68.4%, the “Average release (%)” value ([6]; 10 days) was 89.0% and the “Average release (%)” value ([6]; 17 days) was 95.0%. For the same compound, the “Average release (%)” value ([6]; 24 days) was 99.5%, the “Average release (%)” value ([6]; 30 days) was 100.0% and the “behaviour in release medium in vitro” value ([6]; Fig. 1b, open squares) was “rapidly eluted and dissolved in release medium”. For the same compound, the half-life ([7]; both sexes, C57BL/6N, mouse, whole eye (globe), other: intravitreous injection, 1 µg, read-out: overall half-life in mouse eyes (converted)) was ~50.4 h, the “Remaining Drug (Normalized against T0) (%)” value ([7]; day 7, listed as Sunitinib Suspension) was 10.1% and the “Remaining Drug (Normalized against T0) (%)” value ([7]; day 7, listed as free sunitinib) was 10.1±0.7%. For the same compound, the “Remaining Drug (Normalized against T0) (%)” value ([7]; day 30, listed as Sunitinib Suspension) was 8.8% and the “Remaining Drug (Normalized against T0) (%)” value ([7]; day 30, listed as sunitinib drug suspension) was 9%.
For aflibercept, the “Concentrate of Albmin” value ([8]; Fig 4d, vitreous, 1 week after 40 µg at P28, individual eyes) was 0.1634 µg and 0.1282 µg and 0.1305 µg and 0.1935 µg and 0.4253 µg, the “mean vitreous albumin concentration vs PBS eyes” value ([8]; P28 rho/VEGF mice, 1 week after intravitreous 40 µg) was “significantly less; also recorded: significant reduction” and the “mean number of adherent intravascular leukocytes vs PBS eyes” value (VEGF-induced leukostasis; 200 ng VEGF one week later, 24 h) was “significant reduction”. For the same compound, the “Intravascular leukocytes per retina” value (VEGF-induced leukostasis; Fig 6a, individual retinas) was 51 and 28 and 33 and 20 and 18 and 23 and 44 and 54, the CNVsize ([4]; Fig 2d, intravitreous 40 µg, 1W) was 0.008066 mm2 and 0.009648 mm2 and 0.01333 mm2 and 0.01287 mm2 and 0.01253 mm2 and 0.01268 mm2 and 0.009735 mm2 and 0.0107 mm2 and the CNVsize ([4]; Fig 2d, intravitreous 40 µg, 9W) was 0.03895 mm2 and 0.02251 mm2 and 0.03758 mm2 and 0.02161 mm2 and 0.01535 mm2 and 0.02051 mm2 and 0.02183 mm2. For the same compound, the CNVsize ([4]; Fig 2d, intravitreous 40 µg, 15W, listed as Alfibercept) was 0.02431 mm2 and 0.01432 mm2 and 0.01526 mm2 and 0.01738 mm2 and 0.01801 mm2 and 0.01547 mm2, the “choroidal NV vs PBS fellow eye” value ([4]; intravitreous 40 µg, 1 week after injection) was “significant suppression; also recorded: significant reduction” and the “rhodopsin kinase/actin ratio vs PBS eyes” value (rhodopsin kinase (GRK-1); 40 µg at P14, P49) was “no difference”. For the same compound, the GRK-1/Actin (rhodopsin kinase (GRK-1); Fig 5d, 40 µg, P49, individual retinas) was 0.8885 and 0.8156 and 1.021 and 0.9707 and 0.8036, the “mean ONL thickness vs PBS eyes” value ([9]; 40 µg at P14, measured at P42) was “no significant difference” and the ONL thickness ([9]; location I1) was 0.0549 mm and 0.04725 mm and 0.03173 mm and 0.03578 mm and 0.03893 mm and 0.04095 mm and 0.03375 mm. For the same compound, the ONL thickness ([9]; location I2) was 0.0504 mm and 0.04905 mm and 0.03735 mm and 0.04072 mm and 0.04027 mm and 0.05108 mm and 0.0387 mm, the ONL thickness ([9]; location I3) was 0.05017 mm and 0.03982 mm and 0.03465 mm and 0.03645 mm and 0.0351 mm and 0.04972 mm and 0.04208 mm and the ONL thickness ([9]; location S1) was 0.04253 mm and 0.0441 mm and 0.03465 mm and 0.0414 mm and 0.04478 mm and 0.04545 mm. The ONL thickness ([9]; location S2) was 0.04208 mm and 0.05085 mm and 0.0423 mm and 0.04275 mm and 0.04905 mm and 0.03982 mm and 0.0504 mm, the ONL thickness ([9]; location S3) was 0.04163 mm and 0.0486 mm and 0.03825 mm and 0.04095 mm and 0.04455 mm and 0.03915 mm and 0.0495 mm and the “Mean area of sunretinal NV per retina” value (subretinal NV; P21) was 0.006443 mm2 and 0.004033 mm2 and 0.006827 mm2 and 0.01579 mm2 and 0.001837 mm2 and 0.02155 mm2 and 0.01187 mm2 and 0.0074 mm2 and 0.009835 mm2 and 0.01142 mm2 and 0.01439 mm2 and 0.004674 mm2. For the same compound, the “Mean area of sunretinal NV per retina” value (subretinal NV; P28) was 0.01232 mm2 and 0.01247 mm2 and 0.01867 mm2 and 0.01277 mm2 and 0.01806 mm2 and 0.01223 mm2 and 0.007648 mm2 and 0.002213 mm2 and 0.009102 mm2, the “Mean area of sunretinal NV per retina” value (subretinal NV; P35) was 0.01325 mm2 and 0.02508 mm2 and 0.02389 mm2 and 0.02314 mm2 and 0.01559 mm2 and 0.02014 mm2 and 0.01286 mm2 and 0.008195 mm2 and 0.01062 mm2 and 0.006501 mm2 and 0.02165 mm2 and 0.01911 mm2 and 0.01968 mm2 and 0.008771 mm2 and 0.02218 mm2 and 0.008675 mm2 and the “Mean area of sunretinal NV per retina” value (subretinal NV; P42) was 0.01663 mm2 and 0.008316 mm2 and 0.01691 mm2 and 0.01919 mm2 and 0.01735 mm2 and 0.02425 mm2 and 0.00731 mm2 and 0.02809 mm2 and 0.01595 mm2. The “duration of inhibition of subretinal NV” value (subretinal NV; intravitreous 40 µg) was 1 week and the “mean area of NV per retina vs PBS eyes” value (subretinal NV; intravitreous 40 µg at P14, P21) was “significantly less; also recorded: significantly lower”.
